Key:
[1] = Antiproliferative activity against human MDA-MB-435 cells by SRB assay
[2] = Inhibition of microtubule depolymerization in rat A10 cells after 18 hrs by immunofluorescence assay; type: cell-based
[3] = system: A10; test: Inhibition of microtubule depolymerization in rat A10 cells at 75 uM after 18 hrs by immunofluorescence assay; type: cell-based

| IC50 [1] [nM] | EC50 [2] [µM] | pEC50 [2] | SMILES | inhibition [3] [%] |
| --- | --- | --- | --- | --- |
| 3240 | 7 | 5.15 | CCOC(=O)c1[nH]c(Br)c(-c2cccc3ccccc23)c1Br | – |
| 4360 | 20.9 | 4.68 | CCOC(=O)c1[nH]c(Br)c(-c2ccc3c(c2)OCCO3)c1Br | – |
| – | 2.4 | 5.62 | CCOC(=O)c1[nH]c(Br)c(-c2cccc(OC)c2)c1Br | – |
| 1990 | > 75 | 3.82 | CCOC(=O)c1[nH]c(Br)c(-c2ccc3cc(OCC)ccc3c2)c1Br | – |
| – | 94 | 4.03 | CCOC(=O)c1[nH]c(Br)c(-c2ccc(Br)cc2)c1Br | 40 |
| – | 29.7 | 4.53 | CCOC(=O)c1[nH]c(Br)c(-c2ccc3c(c2)OCO3)c1Br | – |
| – | 9.9 | 5 | CCOC(=O)c1[nH]c(Br)c(-c2ccc(Cl)c(Cl)c2)c1Br | – |
| – | 14.1 | 4.85 | CCOC(=O)c1[nH]c(Br)c(-c2ccc(OC)c(F)c2)c1Br | – |
| – | > 75 | 3.82 | CCOC(=O)c1[nH]c(Br)c(-c2ccc(Cl)cc2)c1Br | – |
| 1980 | 17.8 | 4.75 | CCOC(=O)c1[nH]c(Br)c(-c2c[nH]c3ccccc23)c1Br | – |
| – | 7 | 5.15 | CCOC(=O)c1[nH]c(Br)c(-c2ccc(OC)cc2)c1Br | – |
| – | 18.5 | 4.73 | CCOC(=O)c1[nH]c(Br)c(-c2ccc(SC)cc2)c1Br | – |
| 12900 | > 75 | 3.82 | CCOC(=O)c1[nH]c(Br)c(-c2cc(OC)c(OC)c(OC)c2)c1Br | – |
| 2640 | 14 | 4.85 | CCOC(=O)c1[nH]c(Br)c(-c2cc(OC)c(OC)cc2Br)c1Br | – |
| 10300 | > 75 | 3.82 | CCOC(=O)c1[nH]c(Br)c(-c2ccccc2)c1Br | – |
| 2240 | > 75 | 3.82 | CCOC(=O)c1[nH]c(Br)c(-c2ccc(C)cc2)c1Br | – |
| – | 27.1 | 4.57 | CCOC(=O)c1[nH]c(Br)c(-c2ccc(OC(F)(F)F)cc2)c1Br | – |

— ChEMBL document CHEMBL3132861 (Medchemcomm, 2013)
